Reference: US20260137662A1, “CD11B AGONISTS FOR TREATMENT OF AUTOIMMUNE DISEASE” (Rush University Medical Center, priority 2022, published 2026)

Legend:
[1] = tested on: IMQ-induced mouse model of lupus; assay: IMQ-induced mouse model of lupus, LA1 co-treatment i.p.; type: in vivo, wild type C57BL/6 mice; settings: IMQ cream 8 weeks
Method: FIG. 8A illustrates an experimental timeline for the measurement of suPAR levels, albumin creatinine ratios (ACR), anti-dsDNA antibody levels, and spleen size in wild type mouse models treated with IMQ, LA1, or IMO and LA1 co-treatment.
FIG. 8B illustrates levels of biomarker suPAR in the blood and urine of wild type mice (WT), mice treated with IMQ, mice co-treated with IMQ and vehicle DMSO or mice co-treated with IMQ and LA1 (2 mg/kg i.p. daily). Each dot represents a unique sample. Bars show mean +/−SEM (n=5).
FIG. 8C illustrates the albumin creatinine ratios (ACR) in the blood and urine of wild type mice (WT), mice treated with IMQ, mice co-treated with IMQ and vehicle DMSO or mice co-treated with IMQ and LA1 (2 mg/kg i.p. daily). Each dot represents a unique sample. Bars show mean +/−SEM (n=5).
FIG. 8D illustrates levels of anti-dsDNA antibodies in the blood and urine of wild type mice (WT), mice treated with IMQ, mice co-treated with IMQ and vehicle DMSO, or mice co-treated with IMQ and LA1 (2 mg/kg i.p. daily). Each dot represents a unique sample. Bars show mean +/−SEM (n=5).
FIG. 8E illustrates spleen size (mm) and weight (g) of wild type mice (WT), mice treated with IMQ, mice co-treated with IMQ and vehicle DMSO, or mice co-treated with IMQ and LA1. Each dot represents a unique sample. Bars show mean +/−SEM (n=5).
To investigate efficacy of LA1 as a therapeutic for SLE and autoimmune diseases in vivo, an IMQ-induced mouse model of lupus (Yokogawa et al, 2014) was used. Imiquimod (IMQ), a known TLR7 stimulant, was used to induce disease in wild type mice. Briefly, wild type C57BL/6 mice (WT) were treated topically with IMQ cream (Aldara) over the course of 8 weeks, as shown in the timeline of FIG. 8A, a group was also co-treated intraperitoneally with LA1 or vehicle DMSO. Blood and urine were collected for analysis of inflammatory cytokines and proteinuria over the course of treatment. […] Additionally, spleen size and weight were recorded.

[2] = tested on: BMDMs from mice with global deletion of CD11b (KO); assay: Biomarker secretion from IMQ-treated bone marrow derived macrophages of CD11b KO mice; type: cell-based; settings: CD11b KO cells, IMQ (20 ug/mL) and LA1 (20 uM) co-treatment, 4 hours
Method: (§1) FIG. 7A illustrates levels of biomarker IL-6 secretion in bone marrow derived macrophages (BMDMs) from C57BL/6 wild type (WT) mice, mice with global deletion of CD11b (KO), or C57BL/6 mice expressing CD11b with a point mutation (KI), the macrophages treated for 4 hours with vehicle DMSO (UT), LA1 (20 uM), IMQ (20 ug/mL), or IMQ and LA1 co-treatment. Bars show mean with SD (N=3) (*P<0.05, **P<0.01, ***P<0.001, ****P<0.0001).
as §1, with “7B” for “7A”, “IL-1b” for “IL-6”
as §1, with “7C” for “7A”, “suPAR” for “IL-6”
as §1, with “7D” for “7A”, “IFNb” for “IL-6”
Bone marrow derived macrophages (BMDMs) from C57BL/6 wild type mice (WT), mice with global deletion of CD11b (KO), and C57BL/6 mice expressing CD11b with a point mutation (KI), as described previously (Martinez et al., 2020) were used to evaluate the effect of pharmacologic activation of CD11b by LA1 or genetic activation of CD11b on TLR-pathway dependent biomarkers. BMDMs from WT, KO, and KI mice were left untreated, treated with LA1, treated with IMQ, or co-treated with LA1 and IMQ and levels of biomarkers IL-1b, suPAR, IL-6 and IFN-b were measured 4 hours after treatment.

[3] = co-treated with LA1 2 mg/kg i.p. daily, vs IMQ

O=C(O)c1ccc(-c2ccc(/C=C3\SC(=S)N(Cc4ccccc4)C3=O)o2)cc1 [LA1, (Z)-4-(5-((3-benzyl-4-oxo-2-thioxothiazolidin-5-ylidene)methyl)furan-2-yl)benzoic acid]
reduced: spleen size ([1]; co-treated with LA1) | spleen weight ([1]; co-treated with LA1)
no effect: level of IFN-b in cell supernatant [2] | level of IL-1b in cell supernatant [2] | level of IL-6 in cell supernatant [2] | level of suPAR in cell supernatant [2]
significantly reduced: albumin creatinine ratios (ACR) [1, 3] | levels of anti-dsDNA antibodies [1, 3] | levels of suPAR [1, 3]
